Read-outs that look alike come from different tables or passages of the source.
Experiments:
HepG2 cells = assay: HepG2 cytotoxicity assay; type: cell-based
In short: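 Once incubation ended, the HepG2 plates were warmed to room temperature for 30 min alongside the CellTiter-Glo reagent. Luminescent signal was developed by reagent addition and stabilized for 10 min before plate reading.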

[1] = system: P. falciparum asexual blood stages; conditions: read-out: Pf Asexual blood stages XC50, cited from earlier work
[2] = system: P. falciparum stage V female gametocytes; assay: P. falciparum female gametocyte activation assay (Pf FGAA), 24 h or 48 h preincubation, Pfs25 expression readout; type: cell-based, Plasmodium falciparum NF54; conditions: mean, read-out: Gametocytes mean Pf FGAA IC50
In short: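 Female activation, triggered by xanthurenic acid and cooling, was scored by imaging Cy3-labelled anti-Pfs25 female gametes after 24 h at 26 °C. Beforehand, purified NF54 stage V gametocytes had been incubated with compound for either 24 h or 48 h (37 °C, 3% O2). Values are pIC50 from full-curve regression.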

[3] = system: P. falciparum stages IV–V gametocytes; assay: Gametocytocidal ATP-depletion assay (gametocyte ATP bioluminescence); type: cell-based, Plasmodium falciparum
In short: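 Read-out is luciferase luminescence of parasite ATP (BacTiter-Glo), standing in for viability. Double-purified mature stage IV–V gametocytes, 12,500 per well, were exposed 48 h at 37 °C in low-O2 gas; screening concentration 2 μM.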

[4] = TCAMS data, ref 1 (Gamo et al., 2010)
[5] = TCAMS asexual blood stage data, ref 1 (Gamo, F. J. et al., Nature 465, 305-310, 2010)
[6] = P. falciparum female gametocytes
[7] = P. falciparum female gametocyte activation assay

Row | Structure (SMILES) | IC50 [2] | IC50 [2, 6] | HepG2 cells mean TOX50 (HepG2 cells; mean) | IC50 [1, 4] | Gametocytes mean ATP inhibition at 2µM (%) [3] | HepG2 cells mean TOX50 (HepG2 cells; HepG2 cells; mean) | IC50 [1, 5] | Gametocytes mean ATP inhibition at 2µM [3] | HepG2 cells mean TOX50 (HepG2 cells; mean; HepG2 cells) | IC50 [2, 7]
1 | COc1cc2ccccc2c(OC)c1CCNCCCCNCCc1c(OC)cc2ccccc2c1OC.CS(=O)(=O)O [TCMDC-137842] | 1240 nM | – | 4.17 µM | 890 nM | 60.27% | – | – | – | – | –
2 | C#CCOc1ccc2ccccc2c1CNCCCCCCNCc1c(OCC#C)ccc2ccccc12.CS(=O)(=O)O [TCMDC-137838] | 1050 nM | – | 2.92 µM | 780 nM | 77.84% | – | – | – | – | –
3 | OC1CCN(c2cc(-c3ccccn3)nc(-c3ccccn3)n2)CC1 [TCMDC-123786] | – | 1540 nM | – | – | – | 14.14 µM | 1050 nM | 104.88% | – | –
4 | CC(C)(C)c1ccc(CN2CCC(CNC(=O)c3cc(-c4ccccc4C(F)(F)F)cs3)C2)cc1.O=C(O)C(F)(F)F (stereo not drawn) [TCMDC-134441] | – | 690 nM | – | – | – | 9.77 µM | 1240 nM | -17.21% | – | –
5 | CC(C)c1ccc(CN2CCC(CNC(=O)c3cc(-c4cccc(F)c4)cs3)C2)cc1.O=C(O)C(F)(F)F (stereo not drawn) [TCMDC-134437] | – | 1370 nM | – | – | – | 6.24 µM | 1660 nM | 7.50% | – | –
6 | CCCCSc1c(CNCCCCCCNCc2ccc3ccccc3c2SCCCC)ccc2ccccc12.CS(=O)(=O)O [TCMDC-137825] | 970 nM | – | 2.76 µM | 1000 nM | 10.43% | – | – | – | – | –
7 | CC(C)(C)c1cc(NC2CC2)nc(-c2ccccn2)n1 [TCMDC-125826] | – | 120 nM | – | – | – | >100 µM | 720 nM | 84.45% | – | –
8 | ON=C(c1nc2ccccc2[nH]1)c1nc2ccccc2[nH]1 [TCMDC-125758] | – | 330 nM | – | – | – | 4.96 µM | 1090 nM | 89.28% | – | –
9 | N=C(/N=C(/NCCCCCCN/C(=N/C(=N)NCc1ccc(Cl)c(Cl)c1)N1CCCCC1)N1CCCCC1)NCc1ccc(Cl)c(Cl)c1 [TCMDC-131816] | – | 2610 nM | – | – | – | 43.18 µM | 570 nM | 67.07% | – | –
10 | CCCCOc1c(CCNCCCCNCCc2cc(OC)c3ccccc3c2OCCCC)cc(OC)c2ccccc12.CS(=O)(=O)O [TCMDC-137848] | 610 nM | – | 1.97 µM | 930 nM | 84.96% | – | – | – | – | –
11 | COc1ccc(CNC2Cc3ccccc3C2)cc1-c1ccc(S(=O)(=O)NCCN2CCCC2)cc1.O=C(O)C(F)(F)F [TCMDC-132248] | – | 1990 nM | – | – | – | 5.89 µM | 580 nM | 20.60% | – | –
12 | CN1CCCC1CCNc1ncc2c(-c3ccc(NC(=O)Nc4cc(C(F)(F)F)ccc4F)c(F)c3)nn(C)c2n1.O=C(O)C(F)(F)F (stereo not drawn) [TCMDC-141610] | – | – | – | – | – | – | 290 nM | -9.33% | 4.62 µM | 1470 nM
13 | Nc1c(Cl)cc(C(O)CNCCCCCOCCCc2ccc(O)c3ncccc23)cc1Cl.O=C(O)/C=C/C(=O)O (stereo not drawn) [TCMDC-132088] | – | 2100 nM | – | – | – | 7.76 µM | 990 nM | 76.89% | – | –
14 | CCN(CC)/C(=N/C(=N)NCc1ccc(Cl)cc1Cl)NCCCCCCN/C(=N\C(=N)NCc1ccc(Cl)cc1Cl)N(CC)CC [TCMDC-131819] | – | 4750 nM | – | – | – | 36.73 µM | 220 nM | 65.32% | – | –
15 | CCc1c(CCNCCCCCCNC(C)(C)Cc2ccc3c(c2CC)OCO3)ccc(OC)c1OC.Cl [TCMDC-132055] | – | 1220 nM | – | – | – | 4.27 µM | 930 nM | 19.03% | – | –
16 | COc1ccc(CNC2CCN(C)CC2)cc1-c1ccc(S(=O)(=O)NCc2ccccc2)s1.O=C(O)C(F)(F)F [TCMDC-132253] | – | 1750 nM | – | – | – | 5.50 µM | 230 nM | -2.80% | – | –
17 | Cl.N[C@@H](CCNC1CCN(c2cccc(C(F)(F)F)c2)CC1)Cc1ccc(F)c(F)c1 [TCMDC-132301] | – | 440 nM | – | – | – | 3.76 µM | 1280 nM | 70.53% | – | –
18 | FC(F)(F)c1ccc2[nH]c(-c3ccc(-c4cccc(CN5CCC(CCN6CCCCC6)CC5)c4)cc3)nc2c1.O=C(O)C(F)(F)F [TCMDC-133941] | – | 1260 nM | – | – | – | 4.45 µM | 150 nM | -7.71% | – | –
19 | CC(CO)(CO)NCc1cc2c3ccccc3c(CNC(C)(CO)CO)cc2c2ccccc12.CS(=O)(=O)O [TCMDC-137752] | 4420 nM | – | 7.33 µM | 720 nM | 71.86% | – | – | – | – | –
20 | Cc1ccccc1OCC(O)CNC1CCC(NCC(O)COc2ccccc2C)CC1 (stereo not drawn) [TCMDC-125142] | – | 1110 nM | – | – | – | 4.07 µM | 1190 nM | 39.31% | – | –
21 | Cc1ccc(Cn2nc(Cl)c(N3CCCNCC3)cc2=O)cc1NC(=O)Nc1ccc(-c2ccccc2)cc1.O=C(O)C(F)(F)F [TCMDC-141697] | – | – | – | – | – | – | 670 nM | -13.94% | 7.25 µM | 990 nM
22 | FC(F)(F)c1cccc(Nc2nc3ccccc3nc2Nc2cccc(C(F)(F)F)c2)c1 [TCMDC-124162] | – | 2400 nM | – | – | – | 17.68 µM | 140 nM | 20.50% | – | –
23 | CCn1c2ccccc2c2cc(C=NN=c3cc(C)[nH]c4ccccc34)ccc21 [TCMDC-142186] | – | – | – | – | – | – | 310 nM | 36.64% | 5.82 µM | 4150 nM

Further lines, with some results ahead:

Row | IC50 [2] | IC50 [2, 6] | Structure (SMILES) | HepG2 cells mean TOX50 (HepG2 cells; mean) | IC50 [1, 4] | Gametocytes mean ATP inhibition at 2µM (%) [3] | HepG2 cells mean TOX50 (HepG2 cells; HepG2 cells; mean) | IC50 [1, 5] | Gametocytes mean ATP inhibition at 2µM [3] | HepG2 cells mean TOX50 (HepG2 cells; mean; HepG2 cells) | IC50 [2, 7]
24 | 860 nM | – | CC(Cc1ccc(CNC(=O)c2ccc(CC(C)NCCc3cccc(Cl)c3)cc2)cc1)NCCc1cccc(Cl)c1 (stereo not drawn) [TCMDC-139659] | 2.26 µM | 700 nM | -0.70% | – | – | – | – | –
25 | 2440 nM | – | CC(C)(C)c1ccc(CNC(=O)c2ccc(CNC3CCC(N)CC3)s2)cc1 (stereo not drawn) [TCMDC-140777] | 8.95 µM | 530 nM | 10.64% | – | – | – | – | –
26 | 1970 nM | – | Nc1cc2c(C3CCN(CC4CCN(C(=O)/C=C/c5ccc(Cl)c(Cl)c5)CC4)CC3)c[nH]c2cn1 [TCMDC-140133] | 6.24 µM | 980 nM | -6.84% | – | – | – | – | –
27 | 850 nM | – | Cl.c1ccc2c(NCCCCCCCCCNc3ccnc4ccccc34)ccnc2c1 [TCMDC-137750] | 1.50 µM | 120 nM | 35.04% | – | – | – | – | –
28 | 1400 nM | – | Cc1cc(OCCN2CCCCC2)ccc1NC(=O)c1cccc2c(=O)n(Cc3ccc(Cl)cc3)cnc12 [TCMDC-136727] | 4.17 µM | 1050 nM | 13.25% | – | – | – | – | –
29 | 2690 nM | – | Cc1cc(N)c2cc(NC(=O)/C=C/c3ccc([N+](=O)[O-])cc3)ccc2n1 [TCMDC-139335] | 5.37 µM | 670 nM | -7.69% | – | – | – | – | –
30 | 1420 nM | – | Nc1nc(N)c2c(ccc3c2ccn3Cc2cccc(F)c2)n1 [TCMDC-137810] | 0.06 µM | 3 nM | 0.71% | – | – | – | – | –
31 | 90 nM | – | COc1cccc(C23N=C(Nc4nc5ccccc5[nH]4)NC2(c2cccc(OC)c2)NC(Nc2nc4ccccc4[nH]2)=N3)c1 (stereo not drawn) [TCMDC-139087] | 40.74 µM | 160 nM | 64.05% | – | – | – | – | –
32 | 1050 nM | – | Cl.N=C(NCCCCC1CCCCC1)c1cccc(C(=N)NCCCCC2CCCCC2)n1 [TCMDC-137452] | 1.82 µM | 400 nM | 95.86% | – | – | – | – | –
33 | 1470 nM | – | O=C(NCC1CCN(CCN2CCC(c3cn(CCO)c4ccccc34)CC2)CC1)c1ccc(-c2ccc(C(F)(F)F)cc2)cc1 [TCMDC-138856] | 2.69 µM | 440 nM | 5.55% | – | – | – | – | –
34 | 1230 nM | – | CC1(C)CC(NCCCCCCCOc2ccc(OCc3ccccc3)cc2)CC(C)(C)N1.Cl [TCMDC-138958] | 2.75 µM | 830 nM | 38.17% | – | – | – | – | –
35 | – | 2490 nM | COc1ccccc1C1CCN(C2CCC(NC(=O)c3ccc4[nH]c(-c5ccc(C)cc5)nc4c3)CC2)CC1 (stereo not drawn) [TCMDC-133556] | – | – | – | 3.99 µM | 310 nM | 22.02% | – | –
36 | 920 nM | – | C#CCCOc1ccc2ccccc2c1CNCCCCCCNCc1c(OCCC#C)ccc2ccccc12 [TCMDC-137832] | 4.79 µM | 810 nM | 12.79% | – | – | – | – | –
